One assay has as its target T1, TNKS1 (Homo sapiens, UniProt O95271).
T1 construct: GST-tagged Tnks-1 (1023-1327 aa, prepared in-house); made in house
As to the kind of experiment: TNKS1 activity ELISA (autoparsylation assay). It counts as biochemical. As to conditions: GST-tagged Tnks-1 (1023-1327 aa). As for the experimental part: (§1) Description of the TNKS1 and TNKS2 ELISA Assay
(§2) Biochemical Activity Testing of TNKS 1 and 2: Activity ELISA (Autoparsylation Assay)
(§3) For analysis of autoparsylation activity of TNKS 1 and 2 an activity ELISA iss performed: In the first step GST tagged TNKS is captured on a Glutathione coated plate. Then the activity assay with biotinylated NAD is performed in the absence/presence of the compounds. During the enzymatic reaction GST tagged TNKS transfers biotinylated ADP-ribose to itself from biotinylated NAD as co-substrate. For the detection streptavidin-HRP conjugate is added that binds to the biotinylated TNKS and is thereby captured to the plates. The amount of biotinylated resp. autoparsylated TNKS is detected with a luminescence substrate for HRP. The level of the luminescence signal correlats directly with the amount of autoparsylated TNKS and therefore with activity of TNKS.
(§4) The activity ELISA is performed in 384 well Glutathione coated microtiter plates (Express capture Glutathione coated plate, Biocat, Heidelberg, Germany). The plates are pre-equilibrated with PBS. […] The plates are washed 3 times with PBS-Tween-20. The wells are blocked by incubation at room temperature for 20 minutes with 50 μl blocking buffer (PBS, 0.05% Tween-20, 0.5% BSA). Afterwards the plates are washed 3 times with PBS-Tween-20. […] The reaction is stopped by 3 times washing with PBS-Tween-20. For the detection 50 μl of 20 ng/μl Streptavidin, HRP conjugate (MoBiTec, Göttingen, Germany) in PBS/0.05% Tween-20/0.01% BSA are added and the plates are incubated for 30 minutes at room temperature. After three times washing with PBS-Tween-20 50 μl of SuperSignal ELISA Femto Maximum sensitivity substrate solution (ThermoFisherScientific (Pierce), Bonn, Germany) are added. Following a 1 minute incubation at room temperature luminescence signals are measured with an Envision multimode reader (Perkin Elmer LAS Germany GmbH) at 700 nm. The full value used is the inhibitor-free reaction. […] The inhibitory values (IC50) are determined using either the program Symyx Assay Explorer® or Condosseo® from GeneData.
(In general: An ELISA detects its analyte on a solid surface through an enzyme-linked reagent.)

The target in a further assay is T2, TNKS2 (Homo sapiens, UniProt Q9H2K2).
T2 construct: GST-tagged Tnks-2 (873-1166 aa, prepared in-house); made in house
T2 sequence (Q9H2K2 873-1166): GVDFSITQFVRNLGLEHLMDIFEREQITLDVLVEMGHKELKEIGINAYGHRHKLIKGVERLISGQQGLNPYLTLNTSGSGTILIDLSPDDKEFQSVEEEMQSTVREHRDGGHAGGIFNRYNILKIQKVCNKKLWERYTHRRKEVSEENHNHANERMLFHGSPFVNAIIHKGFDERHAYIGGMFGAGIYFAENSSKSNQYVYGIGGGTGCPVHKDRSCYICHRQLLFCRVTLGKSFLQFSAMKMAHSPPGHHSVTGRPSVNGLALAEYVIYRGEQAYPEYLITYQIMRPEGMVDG
As to the kind of experiment: TNKS2 activity ELISA (autoparsylation assay). It counts as biochemical. The settings on record: GST-tagged Tnks-2 (873-1166 aa); read-out: IC50 [M] TNKS2 ELISA. How it is done: as §1, §2, §3, §4

Another assay deals with Tankyrases. As to conditions: read-out: EC50 [M] TNKS cellular assay; DLD1 cells, 24 hours, Axin2 increase.

A word on the IC50: it is the concentration needed to halve the response being measured. As usually defined, the EC50 is the concentration needed to bring the measured effect to its halfway point.

T1 sequence (O95271 1023-1327): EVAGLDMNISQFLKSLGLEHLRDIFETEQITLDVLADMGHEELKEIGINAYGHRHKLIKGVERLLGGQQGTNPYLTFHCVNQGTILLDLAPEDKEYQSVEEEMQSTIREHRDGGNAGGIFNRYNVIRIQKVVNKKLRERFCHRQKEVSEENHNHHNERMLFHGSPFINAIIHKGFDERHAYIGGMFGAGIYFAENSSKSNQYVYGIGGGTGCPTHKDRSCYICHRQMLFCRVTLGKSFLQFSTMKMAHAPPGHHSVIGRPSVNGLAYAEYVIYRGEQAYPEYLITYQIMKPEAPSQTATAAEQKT

In the case of `COc1ccc(C(=O)C2CCN(C(=O)CCCc3cn4cccc4c(=O)[nH]3)CC2)cc1` [Compound C2, 3-{4-[4-(4-Methoxy-benzoyl)-piperidin-1-yl]-4-oxo-butyl}-2H-pyrrolo[1,2-a]-pyrazin-1-one], the IC50 stood at 0.24 nM at TNKS1 and 1.4e-10 M at TNKS2. Besides, in the assay with Tankyrases, the EC50 is 5e-10 M.

Take `COc1ccc(C(=O)C2CCN(C(=O)CCCc3cn4cccc4c(=O)[nH]3)CC2)cc1C` [Compound C4, 3-{4-[4-(4-Methoxy-3-methyl-benzoyl)-piperidin-1-yl]-4-oxo-butyl}-2H-pyrrolo[1,2-a]pyrazin-1-one]: the IC50 on TNKS1 is 0.14 nM; at TNKS2, 1.5e-10 M. Also, the EC50 with Tankyrases was determined as 3.4e-10 M.

With `COc1ccc(C(=O)C2CCN(C(=O)CCCc3cn4c(F)ccc4c(=O)[nH]3)CC2)cc1` [Compound C9, 6-Fluoro-3-{4-[4-(4-methoxy-benzoyl)-piperidin-1-yl]-4-oxo-butyl}-2H-pyrrolo[1,2-a]pyrazin-1-one], the values for the IC50 at TNKS1 and on TNKS2 were 0.2 nM and 1.3e-10 M, respectively. In addition, the EC50 with Tankyrases stood at 7.2e-10 M.

Take `COc1ccc(C(=O)C2CCN(C(=O)CCCc3cn4cncc4c(=O)[nH]3)CC2)cc1` [Compound C10, 6-{4-[4-(4-Methoxy-benzoyl)-piperidin-1-yl]-4-oxo-butyl}-7H-imidazo[1,5-a]-pyrazin-8-one]: the IC50 at TNKS1 was determined as 0.32 nM; on TNKS2, 1.3e-10 M. The EC50 in the assay on Tankyrases came out at 6.7e-09 M.

Turning to `COc1ccc(C(=O)C2CCN(C(=O)CCCc3cn4nc(C)cc4c(=O)[nH]3)CC2)cc1` [Compound C12, 6-{4-[4-(4-Methoxy-benzoyl)-piperidin-1-yl]-4-oxo-butyl}-2-methyl-5H-pyrazolo[1,5-a]pyrazin-4-one], the values for the half-inhibitory concentration (IC50) on TNKS1 and on TNKS2 were 0.13 nM and 1.4e-10 M, respectively. For the same molecule, the EC50 in the assay with Tankyrases worked out at 4.9e-10 M.

Turning to `COc1ccc(C(=O)C2CCN(C(=O)CCCc3cn4ccnc4c(=O)[nH]3)CC2)cc1` [Compound C13, 6-{4-[4-(4-Methoxy-benzoyl)-piperidin-1-yl]-4-oxo-butyl}-7H-imidazo[1,2-a]-pyrazin-8-one], the results for the IC50 against TNKS1 and at TNKS2 were 1.2 nM and 7.4e-10 M, respectively. Moreover, the EC50 in the assay with Tankyrases came out at 4.1e-07 M.

On to `COc1ccc(C(=O)C2CCN(C(=O)CCCc3nc4c(C)scc4c(=O)[nH]3)CC2)cn1` [Compound C114], for which half-maximal inhibition on TNKS1 (IC50) was put at 0.68 nM.

In the case of `CCc1cc(=O)[nH]c(CCCC(=O)N2CCC(C(=O)c3ccc(F)cc3)CC2)n1` [Compound C252, 6-Ethyl-2-{4-[4-(4-fluoro-benzoyl)-piperidin-1-yl]-4-oxo-butyl}-3H-pyrimidin-4-one], the IC50 worked out at 35 nM against TNKS1 and 1.7e-08 M on TNKS2.

`COc1ccc(C(=O)C2CCN(C(=O)CCCc3noc4ccccc34)CC2)cc1` [Compound C258, 4-(1,2-Benzoxazol-3-yl)-1-[4-(4-methoxybenzoyl)-1-piperidyl]butan-1-one]: the results for the IC50 against TNKS1 and at TNKS2 were 150 nM and 9.5e-08 M, respectively.

In the case of `O=C(c1ccc(F)cc1)C1CCN(C(=O)CCCc2noc3ccccc23)CC1` [Compound C259, 4-(1,2-Benzoxazol-3-yl)-1-[4-(4-fluorobenzoyl)-1-piperidyl]butan-1-one], the IC50 was determined as 730 nM against TNKS1 and 4.6e-07 M at TNKS2.

Take `O=C(c1ccc(F)c(F)c1)C1CCN(C(=O)CCCc2nc3c(c(=O)[nH]2)COCC3)CC1` [Compound C262, 2-{4-[4-(3,4-Difluorobenzoyl)-1-piperidyl]-4-oxo-butyl}-3,5,7,8-tetrahydro-pyrano[4,3-d]pyrimidin-4-one]: the IC50 against TNKS1 came to 7.1 nM; at TNKS2, 1.2e-09 M.

`CC(F)(F)c1ccc(C(=O)C2CCN(C(=O)CCCc3nc4c(c(=O)[nH]3)COCC4)CC2)cc1` [Compound C263, 2-{4-{4-[4-(1,1-Difluoroethyl)benzoyl]-1-piperidyl}-4-oxo-butyl}-3,5,7,8-tetra-hydropyrano[4,3-d]pyrimidin-4-one]: the IC50 against TNKS1 came to 5.1 nM; on TNKS2, 3.3e-10 M.

These data come from patent US9809598B2 (Merck Patent GmbH, priority 2014, dated 2017).
